The values that follow come from ChEMBL document CHEMBL1147667, “Synthesis and structure-activity relationship study of antidiabetic penta-O-galloyl-D-glucopyranose and its analogues” (2006).

The structures appear in SMILES notation.

The experiment deals with 3T3-L1. The experiment can be described thus: [1-3H]-2-deoxy-D-glucose uptake in 3T3 L1 adipocytes. Also on record: reference not given here. Type of experiment: functional, Mus musculus.
Turning to `O=C(OC[C@H]1O[C@@H](OC(=O)c2cc(O)cc(O)c2)[C@H](OC(=O)c2cc(O)cc(O)c2)[C@@H](OC(=O)c2cc(O)cc(O)c2)[C@@H]1OC(=O)c1cc(O)cc(O)c1)c1cc(O)cc(O)c1`, the Activity is on record as 30 Bq. Then `O=C(O[C@H]1O[C@H](CO)[C@@H](OC(=O)c2cc(O)c(O)c(O)c2)[C@H](OC(=O)c2cc(O)c(O)c(O)c2)[C@H]1OC(=O)c1cc(O)c(O)c(O)c1)c1cc(O)c(O)c(O)c1`, with 143 Bq; and `O=C(O[C@H]1O[C@H](CCl)[C@@H](OC(=O)c2cc(O)c(O)c(O)c2)[C@H](OC(=O)c2cc(O)c(O)c(O)c2)[C@H]1OC(=O)c1cc(O)c(O)c(O)c1)c1cc(O)c(O)c(O)c1`, with 181 Bq. Turning to `O=C(OC[C@H]1O[C@H](OC(=O)c2cc(O)c(O)c(O)c2)[C@H](OC(=O)c2cc(O)c(O)c(O)c2)[C@@H](OC(=O)c2cc(O)c(O)c(O)c2)[C@@H]1OC(=O)c1cc(O)c(O)c(O)c1)c1cc(O)c(O)c(O)c1`, the Activity was 145 Bq.

`O=C(OC[C@H]1O[C@H](OC(=O)c2cc(O)cc(O)c2)[C@H](OC(=O)c2cc(O)cc(O)c2)[C@@H](OC(=O)c2cc(O)cc(O)c2)[C@@H]1OC(=O)c1cc(O)cc(O)c1)c1cc(O)cc(O)c1` gave an Activity of 16 Bq. To `O=C(OC[C@H]1O[C@@H](OC(=O)c2cc(O)c(O)c(O)c2)[C@H](OC(=O)c2cc(O)c(O)c(O)c2)[C@@H](OC(=O)c2cc(O)c(O)c(O)c2)[C@H]1OC(=O)c1cc(O)c(O)c(O)c1)c1cc(O)c(O)c(O)c1` belongs 19 Bq; to `O=C(OC[C@H]1O[C@@H](OC(=O)c2ccc(O)cc2)[C@H](OC(=O)c2ccc(O)cc2)[C@@H](OC(=O)c2ccc(O)cc2)[C@@H]1OC(=O)c1ccc(O)cc1)c1ccc(O)cc1`, 27 Bq. Then `O=C(OC[C@H]1O[C@@H](OC(=O)c2cc(O)c(O)c(O)c2)[C@H](OC(=O)c2cc(O)c(O)c(O)c2)[C@H](OC(=O)c2cc(O)c(O)c(O)c2)[C@@H]1OC(=O)c1cc(O)c(O)c(O)c1)c1cc(O)c(O)c(O)c1`, with 34 Bq; and `C[C@H]1O[C@@H](OC(=O)c2cc(O)c(O)c(O)c2)[C@H](OC(=O)c2cc(O)c(O)c(O)c2)[C@@H](OC(=O)c2cc(O)c(O)c(O)c2)[C@@H]1OC(=O)c1cc(O)c(O)c(O)c1`, with 15 Bq. Then `O=C(OC[C@H]1O[C@H](OC(=O)c2cc(O)c(O)c(O)c2)C[C@@H](OC(=O)c2cc(O)c(O)c(O)c2)[C@@H]1OC(=O)c1cc(O)c(O)c(O)c1)c1cc(O)c(O)c(O)c1`, with 29 Bq. `O=C(OC[C@@H]1C[C@H](OC(=O)c2cc(O)c(O)c(O)c2)[C@@H](OC(=O)c2cc(O)c(O)c(O)c2)[C@H](OC(=O)c2cc(O)c(O)c(O)c2)O1)c1cc(O)c(O)c(O)c1` returned an Activity of 30 Bq. Compound `O=C(OC[C@H]1O[C@@H](OC(=O)c2cc(O)c(O)c(O)c2)C[C@@H](OC(=O)c2cc(O)c(O)c(O)c2)[C@@H]1OC(=O)c1cc(O)c(O)c(O)c1)c1cc(O)c(O)c(O)c1` showed an Activity of 15 Bq.

`O=C(O[C@@H]1OC[C@@H](OC(=O)c2cc(O)c(O)c(O)c2)[C@H](OC(=O)c2cc(O)c(O)c(O)c2)[C@@H]1OC(=O)c1cc(O)c(O)c(O)c1)c1cc(O)c(O)c(O)c1`: the Activity is given as 7 Bq. `O=C(OC[C@H]1O[C@H](OC(=O)c2ccc(O)c(O)c2)[C@H](OC(=O)c2ccc(O)c(O)c2)[C@@H](OC(=O)c2ccc(O)c(O)c2)[C@@H]1OC(=O)c1ccc(O)c(O)c1)c1ccc(O)c(O)c1` came in with an Activity of 10 Bq.

`O=C(OC[C@H]1O[C@H](OC(=O)c2cc(O)c(O)c(O)c2)[C@H](OC(=O)c2cc(O)c(O)c(O)c2)[C@H](OC(=O)c2cc(O)c(O)c(O)c2)[C@@H]1OC(=O)c1cc(O)c(O)c(O)c1)c1cc(O)c(O)c(O)c1` yielded an Activity of 23 Bq.

The compound `O=C(OC[C@H]1O[C@@H](OC(=O)c2cc(O)c(O)c(O)c2)[C@@H](OC(=O)c2cc(O)c(O)c(O)c2)[C@@H](OC(=O)c2cc(O)c(O)c(O)c2)[C@@H]1OC(=O)c1cc(O)c(O)c(O)c1)c1cc(O)c(O)c(O)c1` gave an Activity of 19 Bq.

For the compound `CC(=O)OC[C@H]1O[C@H](OC(C)=O)[C@H](OC(C)=O)[C@@H](OC(C)=O)[C@@H]1OC(C)=O`, the Activity was determined as 31 Bq. Consider `O=C(O[C@H]1OC[C@@H](OC(=O)c2cc(O)c(O)c(O)c2)[C@H](OC(=O)c2cc(O)c(O)c(O)c2)[C@H]1OC(=O)c1cc(O)c(O)c(O)c1)c1cc(O)c(O)c(O)c1`, for which the Activity is 124 Bq. `O=C(O[C@H]1OC[C@@H](OC(=O)c2cc(O)c(O)c(O)c2)[C@H](OC(=O)c2cc(O)c(O)c(O)c2)[C@@H]1OC(=O)c1cc(O)c(O)c(O)c1)c1cc(O)c(O)c(O)c1` gave an Activity of 21 Bq. Turning to `O=C(OC[C@H]1O[C@@H](OC(=O)c2ccc(O)c(O)c2)[C@H](OC(=O)c2ccc(O)c(O)c2)[C@@H](OC(=O)c2ccc(O)c(O)c2)[C@@H]1OC(=O)c1ccc(O)c(O)c1)c1ccc(O)c(O)c1`, the Activity came to 20 Bq.

Consider `O=C(OC[C@H]1O[C@H](OC(=O)c2ccccc2)[C@H](OC(=O)c2ccccc2)[C@@H](OC(=O)c2ccccc2)[C@@H]1OC(=O)c1ccccc1)c1ccccc1`, for which the Activity is recorded as 34 Bq.

As for `O=C(O[C@@H]1OC[C@@H](OC(=O)c2cc(O)c(O)c(O)c2)[C@H](OC(=O)c2cc(O)c(O)c(O)c2)[C@H]1OC(=O)c1cc(O)c(O)c(O)c1)c1cc(O)c(O)c(O)c1`, the Activity amounted to 21 Bq. `O=C(OC[C@@H]1C[C@H](OC(=O)c2cc(O)c(O)c(O)c2)[C@@H](OC(=O)c2cc(O)c(O)c(O)c2)[C@@H](OC(=O)c2cc(O)c(O)c(O)c2)O1)c1cc(O)c(O)c(O)c1` showed an Activity of 28 Bq. `O=C(OC[C@H]1OC[C@H](OC(=O)c2cc(O)c(O)c(O)c2)[C@@H](OC(=O)c2cc(O)c(O)c(O)c2)[C@@H]1OC(=O)c1cc(O)c(O)c(O)c1)c1cc(O)c(O)c(O)c1` yielded an Activity of 5 Bq. Then `O=C(OC[C@H]1O[C@H](OC(=O)c2ccc(O)cc2)[C@H](OC(=O)c2ccc(O)cc2)[C@@H](OC(=O)c2ccc(O)cc2)[C@@H]1OC(=O)c1ccc(O)cc1)c1ccc(O)cc1`, with 30 Bq. Then `O=C(O[C@H]1OC[C@@H](OC(=O)c2cc(O)c(O)c(O)c2)[C@@H](OC(=O)c2cc(O)c(O)c(O)c2)[C@H]1OC(=O)c1cc(O)c(O)c(O)c1)c1cc(O)c(O)c(O)c1`, with 10 Bq; and `C[C@H]1O[C@H](OC(=O)c2cc(O)c(O)c(O)c2)[C@H](OC(=O)c2cc(O)c(O)c(O)c2)[C@@H](OC(=O)c2cc(O)c(O)c(O)c2)[C@@H]1OC(=O)c1cc(O)c(O)c(O)c1`, with 115 Bq. For `O=C(OC[C@H]1O[C@H](OC(=O)c2cc(O)c(O)c(O)c2)[C@@H](OC(=O)c2cc(O)c(O)c(O)c2)[C@@H](OC(=O)c2cc(O)c(O)c(O)c2)[C@@H]1OC(=O)c1cc(O)c(O)c(O)c1)c1cc(O)c(O)c(O)c1`, the Activity worked out at 20 Bq.

Turning to `O=C(OC[C@H]1O[C@H](OC(=O)c2cc(O)c(O)c(O)c2)[C@H](OC(=O)c2cc(O)c(O)c(O)c2)C[C@@H]1OC(=O)c1cc(O)c(O)c(O)c1)c1cc(O)c(O)c(O)c1`, the Activity was 11 Bq. Then `O=C(OC[C@H]1O[C@@H](OC(=O)c2cc(O)c(O)c(O)c2)[C@H](OC(=O)c2cc(O)c(O)c(O)c2)C[C@@H]1OC(=O)c1cc(O)c(O)c(O)c1)c1cc(O)c(O)c(O)c1`, with 7 Bq; and `O=C(O[C@@H]1OC[C@@H](OC(=O)c2cc(O)c(O)c(O)c2)[C@@H](OC(=O)c2cc(O)c(O)c(O)c2)[C@H]1OC(=O)c1cc(O)c(O)c(O)c1)c1cc(O)c(O)c(O)c1`, with 12 Bq.

`OC[C@H]1O[C@H](O)[C@H](O)[C@@H](O)[C@@H]1O` gave an Activity of 34 Bq. To `O=C(OC[C@H]1O[C@H](OC(=O)c2cc(O)c(O)c(O)c2)[C@H](OC(=O)c2cc(O)c(O)c(O)c2)[C@@H](OC(=O)c2cc(O)c(O)c(O)c2)[C@H]1OC(=O)c1cc(O)c(O)c(O)c1)c1cc(O)c(O)c(O)c1` belongs 22 Bq. As to `CC(=O)OC[C@H]1O[C@@H](OC(C)=O)[C@H](OC(C)=O)[C@@H](OC(C)=O)[C@@H]1OC(C)=O`, the Activity is given as 24 Bq.

As to `O=C(OC[C@H]1OC(OC(=O)c2cc(O)c(O)c(O)c2)[C@H](OC(=O)c2cc(O)c(O)c(O)c2)[C@@H](OC(=O)c2cc(O)c(O)c(O)c2)[C@@H]1OC(=O)c1cc(O)c(O)c(O)c1)c1cc(O)c(O)c(O)c1` (single isomer, unassigned) [PENTAGALLOYL GLUCOSE], the Activity is given as 107 Bq. To `O=C(OC1OC[C@H](OC(=O)c2cc(O)c(O)c(O)c2)[C@H](OC(=O)c2cc(O)c(O)c(O)c2)[C@H]1OC(=O)c1cc(O)c(O)c(O)c1)c1cc(O)c(O)c(O)c1` (single isomer, unassigned; 63) belongs 23 Bq; to `O=C(OC1OC[C@H](OC(=O)c2cc(O)c(O)c(O)c2)[C@H](OC(=O)c2cc(O)c(O)c(O)c2)[C@H]1OC(=O)c1cc(O)c(O)c(O)c1)c1cc(O)c(O)c(O)c1` (single isomer, unassigned; 65), 14 Bq. In turn, `O=c1oc2c(O)c(O)cc3c(=O)oc4c(O)c(O)cc1c4c23` [ELLAGIC ACID] showed an Activity of 27 Bq. Then `COC(=O)c1cc(O)c(O)c(O)c1` [GALLIC ACID METHYL ESTER], with 20 Bq; and `O=C(O)c1cc(O)c(O)c(O)c1` [GALLIC ACID], with 31 Bq.
